Measured values from patent US9066865B2, “Pharmaceutical compositions for the treatment of inner ear disorders” (AURIS MEDICAL AG, priority 2005, dated 2015).

Assays:
[1] = in vitro release of Ketamine from hyaluronic acid gel into PBS (without membrane or Franz cell with filter/dialysis membrane); type: physicochemical
Experimental: A hyaluronic acid solution (Hylumed, Genzyme Corp.) was prepared at concentrations of 5 and 7.5% in phosphate buffered saline (PBS). At 8%, handling of the gel had shown to be difficult due to the high viscosity. S-(+)-Ketamine hydrochloride (Sigma-Aldrich) was dissolved at a concentration of 2% (weight/weight) equivalent to 73 mM. To evaluate the importance of the drug load factor, concentrations of 0.5% and 2.5% were also tested. Release of the pharmacologically active agent was measured in PBS, a common receiver fluid for controlled release studies, either without any membrane or by using a filter membrane or a dialysis membrane (Spectropore) in a Franz cell (PermeGear). The membranes were employed to mimic the rate limiting membrane of the round window. The temperature of the fluid was maintained constant at body temperature. The bottom chamber of the Franz cell was filled with 5 ml of PBS as the receiver fluid. The receiver fluid contained a stir bar for continuous agitation. The upper chamber was filled with approximately 50 mg of gel and the cell assembled. At various time points, aliquots (typically 1 ml) were withdrawn and analyzed by UV spectrophotometry (Agilent 8453). The absorbance at 215 nm was measured and the concentration calculated using an extinction coefficient of 30 ml/mg cm. As the volume of the aliquot was known, the total amount released could be determined. Each time an aliquot was withdrawn, the same volume of PBS was placed back into the Franz cell chamber.

[2] = pharmacokinetic study: Ketamine in perilymph after 2.8% hyaluronic acid gel on the round window membrane; type: in vivo; conditions: 1 mM, guinea pig
Experimental: In a second step, a pharmacokinetic study with pigmented guinea pigs was carried out in order to evaluate in vivo the diffusion of Ketamine from a hyaluronic acid gel formulation across the round window membrane into the inner ear. A total of 30 animals were tested for concentrations of the pharmaceutical compound in the perilymph at 1 hour, 3 hours, 8 hours, 24 hours and 72 hours following gel administration; 6 animals per time point were tested.
Animals were anaesthetized with a single-dose i.p. injection of 0.3 ml/kg of pentobarbital at 6% (Ceva sante animale), and the right ear bulla was opened using a posterior auricular surgical procedure (dorsal approach). 2 microliters of the hyaluronic gel formulation (2.8% Hylumed Sterile in artificial perilymph, molecular weight 2.44 million; Genzyme Corp.) with S-(+)-Ketamine (Sigma-Aldrich) at a concentration of 1 milliM were then deposited onto the round window membrane of the inner ear. At each of the aforementioned time points, one group of animals was decapitated under deep anaesthesia (pentobarbital 50 mg/kg). […] The samples were then analyzed by liquid chromatography mass spectrometry with a limit of quantification of 0.2 ng/ml (HPLC instrument: Perkin Elmer series 200; mass spectrometer detector: MSD Sciex API 4000 Applied Biosystems; column: Zorbax SB CN 50×2.1 mm 5 μm-Agilent technologies).

[3] = test system: PCP binding site of the NMDA receptor; conditions: relative to (R)-ketamine; cited from earlier work

Structure (SMILES): CN[C@@]1(c2ccccc2Cl)CCCCC1=O (stereo in doubt) [Ketamine, 2-(2-chlorophenyl)-2-(methylamino)-cyclohexanone]
- release rate at 7.5% hyaluronic acid compared with 5% ([1]; 7.5% hyaluronic acid gel, rate limiting membrane): less quickly than at 5%
- duration of release of Ketamine into PBS ([1]; Franz cell with dialysis membrane): about three days
- duration of release of Ketamine into PBS ([1]; Franz cell with filter membrane): approximately 60 hours
- release speed compared with Ketamine hydrochloride solution ([1]; gel with 0.5% Ketamine by weight, Franz cell with filter membrane): nearly as fast as a simple Ketamine hydrochloride solution
- amount released in the first hour (initial burst) ([1]; gel with 2.5% Ketamine loading factor, Franz cell with filter membrane): about 20%
- share of the total cumulative concentration in PBS achieved ([1]; hyaluronic acid gel, no rate limiting membrane, after one hour): ~50%
- duration of release of Ketamine from hyaluronic acid gel ([1]; no membrane): over just a few hours
- time to maximum concentration of Ketamine in perilymph ([2]; 2 microliters on round window membrane): within one hour
- last quantifiable levels in perilymph ([2]; LOQ 0.2 ng/ml): after three days
- higher affinity to the PCP binding site of the NMDA receptor than (R)-ketamine [3]: 3-4 fold
